Measurements published in patent US12435050B2, “Benazolin-choline and its use in the agrochemical field” (BAYER AKTIENGESELLSCHAFT, priority 2019, dated 2025).
“Also recorded” adds a separate entry of the source. Like-named read-outs stand apart in the source and are kept apart here.

What was measured:
[1] = cited from earlier work
[2] = tested on: Portulaca oleracea (POROL); assay: Field weed control efficacy on POROL; format: in vivo; conditions: 200 g a.e./ha, POROL at BBCH 21-22 at application
Excerpt: (§1) The different forms of benazolin were applied to weed plants in the greenhouse or in the field at the growth stage indicated for the different weed species hereinafter. The trials in the greenhouse were sprayed with an application volume of 300 L/ha with an automated track sprayer. The plots in the field were sprayed with an application volume of 140 L/ha with a hand held spray boom. Twenty-one days after application (21 DAA) or twenty-eight days after application (28 DAA) the different weed species were visually rated on a percentage scale in relation to the untreated control (100%=all plants dead; 50%=green plant biomass reduced by 50%, and 0%=no discernible difference=like control plot). The growth stages of the different weed species are indicated according to the BBCH monograph “Growth stages of mono- and dicotyledonous plants”, 2nd edition, 2001, ed. Uwe Meier, Federal Biological Research Centre for Agriculture and Forestry (Biologische Bundesanstalt für Land and Forstwirtschaft).

[3] = tested on: Euphorbia heterophylla (EPHHL); assay: Field weed control efficacy on EPHHL; format: in vivo; conditions: 200 g a.e./ha, EPHHL at BBCH 16-17 at application
Excerpt: as §1

[4] = tested on: Amaranthus retroflexus (AMARE); assay: Greenhouse weed control efficacy on AMARE; format: in vivo; conditions: for % Control compared to untreated AMARE plants 21 DAA: 100 g a.e./ha, AMARE at BBCH 16-19 at application, visual rating 21 DAA; for % Control compared to untreated plants 21 DAA AMARE: BBCH 16-19, 21 DAA
Excerpt: as §1

[5] = tested on: Alternanthera tenella (ALRTE); assay: Field weed control efficacy on ALRTE; format: in vivo; conditions: 200 g a.e./ha, ALRTE at BBCH 14-16 at application
Excerpt: as §1

[6] = tested on: Chenopodium album (CHEAL); assay: Greenhouse weed control efficacy on CHEAL; format: in vivo; conditions: BBCH 15-24, 21 DAA
Excerpt: as §1

[7] = Formulation compatibility: crystal formation after low temperature storage, mixing with dicamba (Clarity); format: physicochemical; conditions: benazolin salt SL10 mixed with Clarity, ratio 2:1 (a.e., w/w), 5° C. for 2 days
Description: (§2) Here simple mixing experiments were performed with soluble liquid SL 10 formulations of benazolin salts containing […] a.e. of benazolin (see General procedure 51 above) containing no surfactant and commercially available dicamba and glyphosate formulations.
(§3) Formulation compatibility (solubility, miscibility and storability) tests of different benazolin salt SL 10 formulations in mixture with commercial formulations of herbicides such as dicamba or glyphosate were performed.
In a first experiment, Clarity® (a commercial formulation of dicamba) was tank mixed with the respective benazolin salt SL 10 formulation in a 2:1 ratio by weight (w/w) based on the respective a.e. contents (in Table B5a referred to as “Ratio”) and the vial placed at 5° C. for 2 days.

[8] = Formulation compatibility: crystal formation after low temperature storage, mixing with glyphosate (Roundup Weathermax); format: physicochemical; conditions: benazolin salt SL10 mixed with Roundup Weathermax, ratio 4:1 (a.e., w/w), 5° C. for 2 days
Description: as §2, §3
In a second experiment, Roundup® Weathermax was tank mixed with the respective benazolin salt SL 10 formulation in a 4:1 ratio by weight (w/w) based on the respective a.e. contents (in Table B5b referred to as “Ratio”) and the vial placed at 5° C. for 2 days.

[9] = free acid, temperature not printed with the values (b59 refers to 25° C.)
[10] = benazolin salt 100 g a.e./ha in combination with 100 g a.e./ha dicamba (Clarity)
[11] = benazolin salt 100 g a.e./ha in combination with 200 g a.e./ha dicamba (Clarity)
[12] = benazolin salt 100 g a.e./ha in combination with 300 g a.e./ha dicamba (Clarity)

| Microscopic evaluation (crystal formation) [8] | SMILES | % Control compared to untreated POROL plants 28 DAA [2] | % Control compared to untreated EPHHL plants 28 DAA [3] | % Control compared to untreated AMARE plants 21 DAA [4] | % Control compared to untreated ALRTE plants 21 DAA [5] | % Control compared to untreated plants 21 DAA CHEAL [6, 10] | % Control compared to untreated plants 21 DAA CHEAL [6, 11] | % Control compared to untreated plants 21 DAA CHEAL [6, 12] | % Control compared to untreated plants 21 DAA AMARE [4, 10] | % Control compared to untreated plants 21 DAA AMARE [4, 11] | % Control compared to untreated plants 21 DAA AMARE [4, 12] | further results |
| --- | --- | --- | --- | --- | --- | --- | --- | --- | --- | --- | --- | --- |
| – | O=C(O)COc1ccc(Cl)cc1Cl [2,4-D, 2,4-dichlorophenoxy)acetic acid] | – | – | – | – | – | – | – | – | – | – | vapor pressure [1, 9]: about 0.019 mPa |
| – | O=C(O)Cn1c(=O)sc2cccc(Cl)c21 [Benazolin, 4-Chloro-2,3-dihydro-2-oxo-1,3-benzothiazol-3-ylacetic acid] | 88% | 5% | 25% | 40% | – | – | – | – | – | – | vapor pressure ([1]; at 20° C.): 0.0001 mPa |
| – | O=C(O)Cn1c(=O)sc2cccc(Cl)c21 [Benazolin-BAPMA] | – | – | 65% | – | 50% | 65% | 67% | 35% | 50% | 65% | – |
| – | O=C(O)Cn1c(=O)sc2cccc(Cl)c21 [Benazolin-DEA] | – | – | – | – | – | – | – | – | – | – | Microscopic evaluation (crystal formation) [7]: Crystal formation; Microscopic evaluation (shape of crystals) [7]: platelets + needles; Microscopic evaluation (size of crystals in μm) [7]: (20-40 μm), |
| Crystal formation | O=C(O)Cn1c(=O)sc2cccc(Cl)c21 [Benazolin-DGA] | 50% | 8% | 40% | 44% | 25% | 65% | 50% | 35% | 40% | 55% | Microscopic evaluation (shape of crystals) [8]: needles; Microscopic evaluation (size of crystals in μm) [8]: (60-100 μm), |
| Crystal formation | O=C([O-])Cn1c(=O)sc2cccc(Cl)c21.[K+] [Benazolin-K] | – | – | – | – | – | – | – | – | – | – | Microscopic evaluation (shape of crystals) [8]: platelets + needles; Microscopic evaluation (size of crystals in μm) [8]: (20-50 μm), |
| – | CCOC(=O)Cn1c(=O)sc2cccc(Cl)c21 [Benazolin-ethyl, Ethyl (4-chloro-2-oxo-1,3-benzothiazol-3(2H)-yl)acetate] | 88% | 8% | 35% | 40% | – | – | – | – | – | – | – |
| – | COc1c(Cl)ccc(Cl)c1C(=O)O [Dicamba, 3,6-dichloro-2-methoxybenzoic acid] | – | – | – | – | – | – | – | – | – | – | vapor pressure [1, 9]: 4.5 mPa |

| SMILES | Microscopic evaluation (crystal formation) [8] | % Control compared to untreated POROL plants 28 DAA [2] | % Control compared to untreated EPHHL plants 28 DAA [3] | % Control compared to untreated AMARE plants 21 DAA [4] | % Control compared to untreated ALRTE plants 21 DAA [5] | % Control compared to untreated plants 21 DAA CHEAL [6, 10] | % Control compared to untreated plants 21 DAA CHEAL [6, 11] | % Control compared to untreated plants 21 DAA CHEAL [6, 12] | % Control compared to untreated plants 21 DAA AMARE [4, 10] | % Control compared to untreated plants 21 DAA AMARE [4, 11] | % Control compared to untreated plants 21 DAA AMARE [4, 12] | further results |
| --- | --- | --- | --- | --- | --- | --- | --- | --- | --- | --- | --- | --- |
| O=C(O)Cn1c(=O)sc2cccc(Cl)c21 [Benazolin-choline] | no crystal formation was observed; also recorded: No crystals | 100% | 13% | 70% | 48% | 70% | 80% | 85% | 50% | 80% | 75% | Microscopic evaluation (crystal formation) [7]: no crystal formation was observed; also recorded: No crystals |
